Reference: patent US5922731A, “5-[(heteroaryl)alkyl]-3-oxo-pyrido[1,2-a]benzimidazole-4-carboxamide derivatives useful in treating central nervous system disorders” (Ortho Pharmaceutical Corporation, priority 1997, dated 1999)

What was measured:
[1] = target: benzodiazepine site of the GABA-A receptor; experiment: Benzodiazepine Receptor Binding Assay (inhibition of 3H-flunitrazepam binding); conditions: 3H-flunitrazepam ca. 3 nM; 10-20 min at 25° C.
Description: Selected compounds, which were prepared according to the experimental details given in the following examples, were tested for binding to the benzodiazepine site of the GABA-A receptor (Williams, M. et al., J. Pharm. Exper. Therap. 1988, 248, 89). The ability of the compounds of the invention to inhibit the binding of flunitrazepam to prepared receptors was assessed. For each sample, membranes from ca. 10 mg of tissue were incubated in a K2 HPO4 -buffered incubation medium (final concentration=2.0 mL). The concentration of ligand (^3 H-flunitrazepam) was ca. 3 nM. Samples were incubated 10-20 min at 25° C., after which the membrane material and bound ligand was collected on glass fiber filter sheets using vacuum filtration. The collected material was washed with 10 mM HEPES buffered solution, and the radioactivity associated with each sample was measured by liquid scintillation spectrometry. The binding of the test drug to the receptor was determined by comparing the amount of radiolabeled ligand bound in control samples to the amount of ligand bound in the presence of the drug. Concentration-response data were analyzed in a variety of ways. The IC50 was usually calculated by transforming the data to a log-logit format, then performing a linear regression analysis. This procedure provides a Hill coefficient as well as the IC50 value. An IC50 value of over 10,000 for a particular compound would indicate that the compound was not active in this screen. This is a general screen and compounds active here are have potential utility for the treatment of one or more disorders of the central nervous system.

[2] = test system: metrazol-induced convulsions; experiment: Suppression of Metrazol-Induced Convulsions in Adult Male Mice; assay type: in vivo, mouse (male CD1); conditions: 0.5 h; mouse, ip; block of clonic convulsions, CD90 dose of metrazol sc, 30 min observation
Description: Compounds of the invention were tested for their ability to reduce metrazol-induced convulsions in mice (Swinyard, E. A. J. Am. Pharm Assoc. 1949, 38, 201). Male CD1 mice, were fasted at least 16 hours, were divided into equal groups and test compounds or vehicle were administered parenterally. Water was not withheld except during the period of observations. At the time of suspected peak activity, anti-pentylenetetrazol (anti-metrazol) activity was evaluated by the subcutaneous administration of the CD90 dose of metrazol (the dose of metrazol was determined from the dose-response curve producing clonic convulsions in 90% of animals that received the corresponding vehicle for this experiment). Metrazol was dissolved in 0.9% sodium chloride solution, and its dose volume was 10 mL/kg. Animals were housed individually for observation of clonic convulsions, tonic convulsions and death for a period of 30 min. Test compounds that blocked the clonic seizure component of the convulsion in at least 50% of the animals were considered active. The biological assay was considered to be valid if the effects of a known anticonvulsant (positive control) were detected, within the same experiment. Activity was reported as percent reduction of clonic convulsions from the vehicle group. The ED50 values of active compounds were calculated by the method of probits (Finney, D. J. 1971. Probit Analysis. London: Cambridge University Press) and are listed in Table 1. […] Compounds active in this screen are considered active anticonvulsion/antiepileptic agents.

[3] = test system: behavior suppressed by punishment (Rat Conflict); experiment: Suppression of Anxiety in the Adult Male Rat (conflict test); assay type: in vivo; conditions: ip, minimum effective dose, p<0.05 1-tailed vs vehicle, 3-min test session, read-out: Rat Conflict MED
Description: The anxiolytic activity of selected compounds of the invention was assessed by determining their ability to release (disinhibit) behavior that had been suppressed by punishment (Vogel, J. R. et al. Psychopharmacology 1971, 21, 1). Male rats were deprived of water for 48 hrs and were deprived of food for 24 hrs prior to testing. After the first 24 hours of water deprivation, they were placed in the conflict chamber for a training period; wherein, they were allowed 200 unpunished licks from a bottle containing tap water. The experiment was run the next day. At the expected time of peak activity, the animals were placed in the chamber and allowed access to tap water. […] Their first lick initiates a 3-min test session. Subsequently,every 20th lick was punished by a 0.2-s shock delivered via the stainless-steel drinking-tube. Vehicle-treated control animals generally were willing to accept a median number of 3 to 8 shocks per test session. […] The Wilcoxon rank-sum test (Mann-WhitneyU-test) was used to test for an increase (p<0.05, 1-tailed) in the median number of shocks in drug-treated groups, compared to a concurrently run vehicle-treated group. The biological assay is considered to be valid if the effects of a known anxiolytic (positive control) are detected, within the same experiment. A compound was considered active if there is a significant difference in the median number of shocks tolerated between the drug-treated group and the control group. The MED was defined as the minimum dose of the drug-treatment as analyzed using the Wilcoxon rank-sum test (SAS; Statistical Analysis System, version 5.16). If the MED value is greater than 10, an active dose of the compound being tested had not been determined.

Structure (SMILES)	IC50 [1]	ED50 [2]	minimal effective dose [3]
O=C1CCN2C(=C1C(=O)Nc1ccccc1F)N(Cc1ccco1)c1cc(F)ccc12 [CP# 11]	0.59 nM	< 10 mg/kg	> 10 mg/kg
O=C1CCN2C(=C1C(=O)Nc1ccccc1F)N(Cc1c[nH]cn1)c1cc(F)ccc12 [CP# 12, 7-Fluoro-1,2-dihydro-5-[(4-imidazo)methyl]-3-oxo-N-(2-fluorophenyl)pyrido-[1,2-a]benzimidazole-4-carboxamide]	0.29 nM	30 mg/kg	> 10 mg/kg
O=C1CCN2C(=C1C(=O)Nc1ccccc1F)N(Cc1ccc[n+]([O-])c1)c1cc(F)ccc12 [CP# 13]	5.19 nM	3 mg/kg	> 10 mg/kg
O=C1CCN2C(=C1C(=O)Nc1ccccc1F)N(Cc1cc[n+]([O-])cc1)c1cc(F)ccc12 [CP# 14]	13.4 nM	10 mg/kg	> 10 mg/kg
O=C1CCN2C(=C1C(=O)Nc1ccccc1F)N(CCc1ccccn1)c1cc(F)ccc12 [CP# 15]	0.89 nM	0.3 mg/kg	10 mg/kg
O=C1CCN2C(=C1C(=O)Nc1ccccc1F)N(Cc1ccncc1)c1cc(F)ccc12 [CP# 16]	3.01 nM	3 mg/kg	> 10 mg/kg
O=C1CCN2C(=C1C(=O)Nc1ccccc1F)N(Cc1cccnc1)c1cc(F)ccc12 [CP# 17, 7-Fluoro-1,2-dihydro-5-(3-pyridylmethyl)-3-oxo-N-(2-fluorophenyl)pyrido[1,2-a]benzimidazole-4-carboxamide]	1.27 nM	1 mg/kg	> 10 mg/kg
O=C1CCN2C(=C1C(=O)Nc1c(F)cccc1F)N(CCc1cccs1)c1cc(F)ccc12 [CP# 18]	0.61 nM	10 mg/kg	> 10 mg/kg
O=C1CCN2C(=C1C(=O)Nc1ccccc1F)N(Cc1ccsc1)c1cc(F)ccc12 [CP# 19, 7-Fluoro-1,2-dihydro-5-[(3-thienyl)methyl]-3-oxo-N-(2-fluorophenyl)pyrido-[1,2-a]benzimidazole-4-carboxamide]	0.71 nM	0.7 mg/kg	< 10 mg/kg
O=C1CCN2C(=C1C(=O)Nc1ccccc1F)N(CCc1ccsc1)c1cc(F)ccc12 [CP# 20, 7-Fluoro-1,2-dihydro-5-[2-(3-thienyl)ethyl]3-oxo-N-(2-fluorophenyl)pyrido[1,2-a]benzimidazole-4-carboxamide]	0.096 nM	0.1 mg/kg	< 10 mg/kg
O=C1CCN2C(=C1C(=O)Nc1ccccc1F)N(Cc1cccs1)c1cc(F)ccc12 [CP# 21, 7-Fluoro-1,2-dihydro-5-[(2-thienyl)methyl]-3-oxo-N-(2-fluorophenyl)pyrido-[1,2-a]benzimidazole-4-carboxamide]	0.3 nM	< 1 mg/kg	< 10 mg/kg
O=C1CCN2C(=C1C(=O)Nc1ccccc1F)N(Cc1ccccn1)c1cc(F)ccc12 [CP# 22]	2.79 nM	< 1 mg/kg	< 10 mg/kg
O=C1CCN2C(=C1C(=O)Nc1c(F)cccc1F)N(Cc1ccsc1)c1cc(F)ccc12 [CP# 23]	4.24 nM	> 10 mg/kg	> 10 mg/kg
O=C1CCN2C(=C1C(=O)Nc1c(F)cccc1F)N(Cc1ccccn1)c1cc(F)ccc12 [CP# 24]	24.4 nM	3 mg/kg	10 mg/kg
O=C1CCN2C(=C1C(=O)Nc1c(F)cccc1F)N(CCc1ccsc1)c1cc(F)ccc12 [CP# 25]	0.22 nM	3 mg/kg	< 10 mg/kg
O=C1CCN2C(=C1C(=O)Nc1c(F)cccc1F)N(Cc1cccs1)c1cc(F)ccc12 [CP# 26]	2.98 nM	< 10 mg/kg	> 10 mg/kg
O=C1CCN2C(=C1C(=O)Nc1c(F)cccc1F)N(Cc1ccco1)c1cc(F)ccc12 [CP# 27]	1.26 nM	1 mg/kg	> 10 mg/kg
O=C1CCN2C(=C1C(=O)Nc1ccccc1F)N(Cc1ccccn1)c1ccccc12 [CP# 28, 1,2-Dihydro-5-(2-pyridylmethyl)-3-oxo-N-(2-fluorophenyl)pyrido[1,2-a]-benzimidazole-4-carboxamide]	3.77 nM	0.5 mg/kg	< 10 mg/kg
O=C1CCN2C(=C1C(=O)Nc1c(F)cccc1F)N(Cc1ccccn1)c1ccccc12 [CP# 29]	23.9 nM	3 mg/kg	> 10 mg/kg
O=C1CCN2C(=C1C(=O)Nc1ccccc1F)N(Cc1cccnc1)c1ccccc12 [CP# 30]	4.54 nM	10 mg/kg	10 mg/kg
